What all share (assay type): in vivo
Series [1] deals with T1, Hb (Mus musculus, UniProt P01942).
T1 construct: from tissue; host or cells: whole blood (red blood cells) of dosed C57BL / C57BL/6J mice
Kind of series: Tolerance to hypoxia mouse model: PK/PD (Hb occupancy, hemoximetry of blood from dosed mice). To be noted: healthy mice. As to the method: (§1) Male, C57BL mice were fitted with a dorsal skinfold window chamber for direct visualization of an intact microvascular bed (Yalcin & Cabrales 2012). After the window chamber was implanted, the animals were left to recover for at least 2 days, before undergoing surgery a second time for arterial (carotid) catheter implantation (PESO tubing). After two day of recovery, mice were dosed orally with Compound 1 (70 or 140 mg/kg) or vehicle only and Hb O2 affinity was determined by hemoximetry. Two hours post dose, conscious mice were placed in a restraining tube with a longitudinal slit from which the protruding window chamber provided a microscopic stage for observation. In this setup, gas flow rate (0.2 L/min) into the tube is diffused by a cotton filter barrier. Baseline measurements for normoxia (21% O2) were completed within an hour of restraining mice. The animals were then exposed to stepwise hypoxia by decreasing the O2 concentration to 15, 10 and 5%. Animals were kept at each hypoxic level for 30 min. Mice were allowed 15 min of acclimatization at each new hypoxic level before measurements were taken. During hypoxia, changes in systemic and microvascular hemodynamics, blood gases, blood lactate, tissue partial pressure of O2 (PO2), tissue hypoxia and tolerance to hypoxia were evaluated. At each time point, mice with adequate systolic blood pressure (BP) were counted as survived and mice with severe hypotension (BP≤60 mmHg) were counted as non-survived and were euthanized.
Oxygen equilibrium curves for mice blood were obtained by deoxygenation of O2-equilibrated samples in a Hemox buffer at 37° C., using a Hemox Analyzer (TCS Scientific Corporation, New Hope, Pa.). […] The absorbance at wavelengths that correspond to the isosbestic point (570 nm) and deoxy Hb (560 nm) was recorded as a function of the sample O2 tension (pO2). During deoxygenation, the pO2 and percent O2 saturation values were collected to obtain the OECs and the p50 values (partial pressure of O2 at which Hb is 50% saturated with O2). p50 values were calculated using a non-linear regression analysis. […]

Series [2] has as its system healthy mice subjected to extreme hypoxia. Kind of series: Tolerance to hypoxia mouse model: systemic parameters, tissue hypoxia, survival. The note with it: for survival: after 1.5 hours of exposure to 5% O2 hypoxia. Here is the method: as §1
MAP (mean arterial pressure) and heart rate (HR) were recorded continuously from Carotid catheter. Hct was measured from centrifuged arterial blood samples taken in heparinized capillary tubes. Arterial blood was collected in heparinized glass capillaries (50 μL) and immediately analyzed for PO2, PCO2, base excess, and pH. Arterial Hb saturations were measured using a CO-Oximeter.
High resolution non-invasive microvascular PO2 measurements were made using phosphorescence quenching microscopy (PQM). Tissue PO2 was measured in regions in between functional capillaries (Yalcin & Cabrales 2012). Hb O2 saturations in the microcirculation are calculated using the O2 equilibrium curves measured.
Tissue hypoxia was studied via immunohistochemistry staining for pimonidazole bound to hypoxic zones in vital tissues. Mice received a bolus intraperitoneal injection (IP) injection of the hypoxic marker Hypoxyprobe-1 (pimonidazole 40 mg/kg) and 5 mg/kg Hoechst 33342 diluted in PBS (total volume, 100 μL). At the end of the study, mice were euthanized and tissues extracted for histology. Sections are stained with monoclonal antibody against pimonidazole. Images for pimonidazole antibody-stained areas and Hoechst were recorded. Results are reported as the ratio of pimonidazole stained area to the total cellular area by co-localization of pimonidazole and Hoechst.

For series [3], the target named is T1, Hb. The experiment in a line: LPS-induced acute lung injury mouse model: PK/PD (Hb occupancy, hemoximetry). The note with it: LPS-induced ALI mice. As to the method:
Adult, 8-10-week-old male C57BL/6J mice (Jackson Laboratory, Bar Harbor, Me.), were anesthetized with isoflurane, injected with 100 μg LPS (Sigma, St. Louis, Mo.) in 100 μL PBS by direct intratracheal injection. After 24 hours, mice were given Compound 1 (70 or 140 mg/kg formulated in dimethylacetamide, polyethylene glycol 400 (PEG400) and 40% cavitron in a ratio of 1:5:4, respectively) or vehicle only (5 μL/g) by oral gavage 2 hours prior to placement in a hypoxia chamber. Mice were exposed to either 10 or 5% O2 for 4 hours. Oxygen saturation (SaO2) was measured with a pulse oximeter (STARR Life Sciences, Oakmont, Pa.) at baseline and hourly during hypoxic exposure. During hypoxic exposure, mice were monitored continuously and a moribund check was done every 15 minutes. Time to death was assessed by time to moribund status. Mice were determined to be moribund if they could not right themselves when placed in a supine position.
Blood was collected by cardiac puncture in the hypoxic chamber. Blood gases were measured using the i-STAT portable analyzer within the hypoxic environment (Abaxis, Union City, Calif.). Remaining blood samples were used for hemoximetry and pharmacokinetic analysis. For sample collection, mice were euthanized with pentobarbital overdose. A bronchoaleveolar lavage (BAL) was performed with 900 uL Saline. Blood was collected by retro orbital puncture, and then spun to collect plasma. Lungs were removed and flash frozen. All samples were stored at −80° C. until further study. BAL inflammatory cell counts and differentials were determined manually after staining cytospins with DiffQuik. BAL protein was measured using a Pierce BCA Protein Assay Kit (Thermo Scientific, Waltham, Mass.).
Hemoximetry was used to determine the PD effect of Compound 1 in whole blood from dosed mice as described above. Representative oxygen equilibrium curves (OECs) of whole blood obtained from mice dosed with Compound 1 (blue and red lines) or vehicle only (black line) are shown in FIG. 3A.

[4] abbreviates: 70 or 140 mg/kg oral, vs vehicle.

T1 sequence (P01942 2-142 limits assumed): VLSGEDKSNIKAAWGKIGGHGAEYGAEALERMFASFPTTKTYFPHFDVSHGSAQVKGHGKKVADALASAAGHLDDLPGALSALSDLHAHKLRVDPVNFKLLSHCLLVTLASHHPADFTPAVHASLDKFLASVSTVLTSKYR
T1 sequence (P02088 2-147 partner limits assumed): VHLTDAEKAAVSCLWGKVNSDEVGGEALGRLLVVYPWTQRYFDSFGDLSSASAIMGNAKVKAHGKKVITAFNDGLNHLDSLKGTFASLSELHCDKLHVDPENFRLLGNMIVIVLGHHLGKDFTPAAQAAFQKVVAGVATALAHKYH

Take `O=Cc1c(O)cccc1OC[C@@H]1CCCCN1C(=O)c1cccnc1` [Compound 1, (S)-2-hydroxy-6-((1-nicotinoylpiperidin-2-yl)methoxy)benzaldehyde]: the “calculated Hb occupancy” value is roughly 30% on Hb [1] (70 mg/kg oral) and roughly 60% at Hb [1] (140 mg/kg oral). Besides, the “Hb O2 affinity (left-shift in the OEC) in whole blood from dosed mice” value at Hb [1] (setting [4]) and on Hb [3] (setting [4]) was “dose-dependent increase in Hb O2 affinity relative to control” in each case. The survival in series [2] (70 mg/kg) turned out to be 16%; in series [2] (140 mg/kg), 83%. Besides, the “arterial blood pH” value in series [2] (during 10% and 5% O2 hypoxia) is “normal during hypoxia”. Moreover, the “arterial blood oxygen saturation (SaO2)” value in series [2] (during hypoxia, 70 or 140 mg/kg oral, vs control) is “dose-dependently increased SaO2 relative to control”. For the same compound, in series [2] (during hypoxia, vs control), the “heart rate (HR)” value was “sustained higher”. The “mean arterial pressure (MAP)” value in series [2] (during hypoxia, vs control) is reported as “sustained higher mean BP”. Further, the blood lactate levels entry in series [2] (extreme hypoxia (5% O2), vs control) was “reduced lactate levels relative to control”. Moreover, the “hypoxic tissues positively stained by pimonidazole” value in series [2] (extreme hypoxia, vs control) is given as “reduced hypoxic tissues positively stained by pimonidazole relative to control”. In addition, the “arterial blood partial pressure of O2 (PaO2)” value in series [2] (stepwise hypoxia, 70 or 140 mg/kg oral) was “the PaO2 was the same in Compound 1-treated and control mice”. In addition, the Hb occupancy on Hb [3] (70 mg/kg oral) was roughly 19%; on Hb [3] (140 mg/kg oral), roughly 27%.

Values taken from patent US10695330B2, “Methods of treatment” (Global Blood Therapeutics, Inc., priority 2015, dated 2020).
